The results in this text go back to patent US11447479B2, “Compounds active towards nuclear receptors” (NUEVOLUTION A/S, priority 2019, dated 2022).

The term IC50 denotes the concentration that gives 50% inhibition.

Experiment [1] deals with Th17 cells. In words: Th17 assay (IL-17 in supernatants of differentiating human naive CD4+ T cells, ELISA). In kind it is cell-based. Conditions: 168 h, Th17 differentiation for seven days with test compound, IL-17 levels in supernatants by ELISA. On the procedure:
Th17 Assay (Another Suitable Assay)
The following modifications were made to the manufacturer's protocol: 1) Incubation with Biotin-Antibody Cocktail and Anti-Biotin MicroBeads was prolonged to 30 minutes, and 2) Cells were washed with 40 mL of Miltenyi buffer. Differentiation of Th17 cells in anti-CD3 (BD Pharmingen, 5 μg/ml) coated 96-well plates (400,000 cells/well, 160 μl RPMI1640+10% Fetal Bovine Serum) containing 5 μg/ml anti-CD28 (BD Pharmingen), 10 ng/ml IL-2 (R&D Systems), 2.5 ng/ml TGFβ-1 (R&D Systems), 20 ng/ml IL-1β (R&D Systems), 20 ng/ml IL-6 (R&D Systems), 30 ng/ml IL-23 (R&D Systems), 2.5 μg/ml anti-IL-4 (R&D Systems) and 1 μg/ml anti-IFNγ (R&D Systems) and with test compound during the entire differentiation (or vehicle, 0.1% DMSO for control). Test compounds were tested in triplicates, diluted 1000-fold in medium (final DMSO concentration is 0.1%). Incubated for seven days at 37° C., 5% CO2, 95% humidity, and 2-fluoro-4′-[[4-(4-pyridinylmethyl)-1-piperazinyl]methyl]-α,α-bis(trifluoromethyl)-[1,1′-biphenyl]-4-methanol (SR2211 Calbiochem, Cat. No. 557353) was used as positive control. As negative control, cells were differentiated into Th0 using 5 μg/ml anti-CD28 (BD Pharmingen), 10 ng/ml IL-2 (R&D Systems), 2 μg/ml anti-IL4 (R&D Systems) and 2 μg/ml anti-IFNγ (R&D Systems) are negative control. IL-17 levels in supernatants were measured with ELISA (R&D Systems).

The target in experiment [2] is T1, RORγ (Homo sapiens, UniProt P51449).
T1 construct: Gal4 (galactose-responsive transcription factor); expressed in transfected cells; host or cells: HEK293
T1 sequence (P51449 269-508 limits assumed): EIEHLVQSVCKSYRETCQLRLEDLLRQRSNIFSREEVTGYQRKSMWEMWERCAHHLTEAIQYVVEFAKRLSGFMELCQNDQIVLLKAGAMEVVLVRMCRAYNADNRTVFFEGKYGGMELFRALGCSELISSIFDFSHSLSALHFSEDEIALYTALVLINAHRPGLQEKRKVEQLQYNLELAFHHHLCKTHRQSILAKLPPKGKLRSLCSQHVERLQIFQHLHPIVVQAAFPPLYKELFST
Kind of experiment: RORγ Reporter Assay (Gal4). In kind it is cell-based. As to conditions: HEK293 co-transfected with RORγ LBD-Gal4 and luciferase reporter, 24 h incubation, absolute IC50; read-out: IC50. Here is the method:
RORγ Reporter Assay (Gal4)
The HEK293 cell line is co-transfected transiently with two plasmids, one with the RORγ ligand-binding domain fused to galactose-responsive transcription factor (Gal4), and the other with the luciferase reporter gene and Gal binding sites (UAS). This construction allows to determine the RORγ activity in a cellular system through the measurement of luminescence.
A suspension of RORγ reporter cells was dispensed into plates and cultured 2 h at 37° C. and 5% CO2. Media formulation consisted in DMEM/F-12 medium (Gibco) supplemented with 10% heat inactivated FBS (Sigma-Aldrich), non-essential aminoacids (Sigma-Aldrich), 2 mM Glutamax (Gibco) and 100 U/mF penicillin (Sigma-Aldrich). Dose-response curves with compounds were prepared in 100% DMSO and further diluted […] in culture medium. Compound solutions were added to the plate containing cells (final DMSO concentration of 0.1%) and incubated for 24 h at 37° C. and 5% CO2. Luciferase detection reagent was added to each well, and relative light units […] were quantified from each assay well using a plate reading luminometer.
Values of average RFU±S.D. were computed for all treatment sets, followed by the calculations of percent-reduction of RORγ activity in response to respective test compound. The following formula was used: activity=100*[1−[x test compound/average vehicle]where the theoretical minimum reduction (0% reduction).
(A reporter such as luciferase makes a cellular process visible.)

Experiment [3] deals with Collagen-induced arthritis. Kind of experiment: Collagen-Induced Arthritis (CIA) study. In kind it is in vivo. Conditions: 10 mpk po bid, male DBA/1J mice. On the procedure:
Collagen-Induced Arthritis (CIA) Study Collagen-induced arthritis is an animal model of rheumatoid arthritis used to evaluate the efficacy of test compounds. CIA was induced at Washington Biotechnology Inc. (Baltimore) in male DBA/1J mice (Jackson Laboratories) by subcutaneous injection at the base of the tail with 50 μl of a bovine collagen/complete Freund's adjuvant emulsion. After 21 days, the mice were further boosted by a further subcutaneous injection of 50 μl of a collagen/incomplete Freund's adjuvant emulsion. For treatment, compound or vehicle (2% DMSO, 10% HP—β-CD in MilliQ water) was given orally twice daily at various doses selected from 3, 10, 30 mg/kg, beginning at the day of CIA induction (Prophylactic setting), or after disease initiation (at day 27, therapeutic setting). Treatment lasted until day 41, and the animals were scored three times weekly. Each paw was scored and the sum of all four scores was recorded as the Arthritic Index (AI). The maximum possible AI was 16. 0=no visible effects of arthritis; 1=edema and/or erythema of one digit; 2=edema and/or erythema of 2 joints; 3=edema and/or erythema of more than 2 joints; 4=severe arthritis of the entire paw and digits including limb deformation and ankylosis of the joint. […] At 10 mpk po bid, H6-13-2 Arthritis Index (AI) decreased with 83% of the effect of the mouse aIL-17A antibody. […]

The test system of experiment [4] is plasma IL-17A. Kind of experiment: In vivo IL-17A induction in anti-CD3 model in mice. As to conditions: oral gavage twice daily day 0 to day 3, plasma IL-17A by ELISA, C57BL/6JRj mice. On the procedure: In Vivo IL-17A Induction in Anti-CD3 Model in Mice
Male C57BL/6JRj mice (7 week old) were purchased from Janvier Labs and housed at the animal facilities of Almirall throughout the study. Animals were allowed to condition for 5 days in their new environment at 22° C.±2° C., 55%±10% relative humidity and 12 h:12 h light:dark cycles. Animals were housed in polycarbonate cages, with free access to water and non-purified stock diet (2014 Teklad Global 14% Protein Rodent Maintenance Diet, Envigo) during the full course of the studies. Care of animals was undertaken in compliance with the European Committee Directive 2010/63/EU, and the Catalan and Spanish law. […]
Plasma levels of IL-17A were measured by ELISA (R&D Systems) according to the manufacturer's instruction. Results were calculated as the percentage of reduction of plasma IL-17A versus the difference between non-induced and anti-CD3e induced groups through the formula: inhibition=100*[1−[(x−mean non-induced)/(mean control vehicle−mean non-induced)]]. The IL-17A inhibition for each treatment can be expressed as the mean for each treatment group±S.E.M. Statistical analysis of data were conducted with one-way ANOVA followed by Dunnett's multiple comparisons test when appropriate. […]
(An ELISA detects its analyte on a solid surface through an enzyme-linked reagent.)

With `NC(=O)CN1CC[C@H](CNc2ncnc(N3CCOC[C@@H]3c3ccc(C(F)(F)F)cn3)c2F)[C@@H](F)C1` (single isomer, unassigned) [Example H6-13-2, 2-((3R*,4R*)-3-fluoro-4-(((5-fluoro-6-((S)-3-(5-(trifluoromethyl)pyridin-2-yl)morpholino)pyrimidin-4-yl)amino)methyl)piperidin-1-yl)acetamide], the IC50 stood at 93 nM in experiment [1] and 54 nM in experiment [2]. In experiment [3], the “Arthritis Index (AI) decrease as % of the effect of the mouse aIL-17A antibody” value stood at 83%.

As for `NC(=O)CN1CC[C@H](CNc2ncnc(N3CC(F)(F)C[C@@H]3c3ccc(C(F)(F)F)cc3)c2F)[C@@H](O)C1` (single isomer, unassigned) [Example H6-17-1, 2-((3R*,4R*)-4-(((6-((R)-4,4-difluoro-2-(4-(trifluoromethyl)phenyl)pyrrolidin-1-yl)-5-fluoropyrimidin-4-yl)amino)methyl)-3-hydroxypiperidin-1-yl)acetamide], the IC50 in experiment [2] was determined as 26 nM. Also, in experiment [4], the “Inhibition of IL-17A (%) at 3 mg/kg” value is 67%.

On to `NC(=O)CN1CCC(CNc2ncnc(N3CCOC[C@@H]3c3ccc(C(F)(F)F)cn3)c2F)C(F)(F)C1` (single isomer, unassigned) [Example H6-11-2, 2-((R*)-3,3-difluoro-4-(((5-fluoro-6-((S)-3-(5-(trifluoromethyl)pyridin-2-yl)morpholino)pyrimidin-4-yl)amino)methyl)piperidin-1-yl)acetamide], for which the values for the IC50 in experiment [1] and in experiment [2] were 82 nM and 66 nM, respectively. The “Arthritis Index (AI) decrease as % of the effect of the mouse aIL-17A antibody” value in experiment [3] is 61%.
